Structures can show the parent of a compound that is named as a salt.

In one assay the target is recombinant human PARP (Homo sapiens, UniProt P09874). Put plainly: Measurement of PARP enzymatic activity (transfer of radiolabeled ADP-ribose from NAD+ to protein acceptor). In kind it is biochemical. To be noted: 3 uM; Table 3. As for the experimental part: PARP activity was monitored by transfer of radiolabeled ADP-ribose units from [^32]NAD^+ to a protein acceptor such as histone or PARP itself. […] The reactions were initiated by the addition of 100 μM NAD^+ supplemented with 2 uCi [^32]NAD^+/mL and maintained at room temperature for 12 minutes. […] The amount of acid-insoluble radioactivity, corresponding to polyADP-ribosylated protein, was quantitated in a Wallac MicroBeta scintillation counter.
Sequence of recombinant human PARP (P09874 whole entry): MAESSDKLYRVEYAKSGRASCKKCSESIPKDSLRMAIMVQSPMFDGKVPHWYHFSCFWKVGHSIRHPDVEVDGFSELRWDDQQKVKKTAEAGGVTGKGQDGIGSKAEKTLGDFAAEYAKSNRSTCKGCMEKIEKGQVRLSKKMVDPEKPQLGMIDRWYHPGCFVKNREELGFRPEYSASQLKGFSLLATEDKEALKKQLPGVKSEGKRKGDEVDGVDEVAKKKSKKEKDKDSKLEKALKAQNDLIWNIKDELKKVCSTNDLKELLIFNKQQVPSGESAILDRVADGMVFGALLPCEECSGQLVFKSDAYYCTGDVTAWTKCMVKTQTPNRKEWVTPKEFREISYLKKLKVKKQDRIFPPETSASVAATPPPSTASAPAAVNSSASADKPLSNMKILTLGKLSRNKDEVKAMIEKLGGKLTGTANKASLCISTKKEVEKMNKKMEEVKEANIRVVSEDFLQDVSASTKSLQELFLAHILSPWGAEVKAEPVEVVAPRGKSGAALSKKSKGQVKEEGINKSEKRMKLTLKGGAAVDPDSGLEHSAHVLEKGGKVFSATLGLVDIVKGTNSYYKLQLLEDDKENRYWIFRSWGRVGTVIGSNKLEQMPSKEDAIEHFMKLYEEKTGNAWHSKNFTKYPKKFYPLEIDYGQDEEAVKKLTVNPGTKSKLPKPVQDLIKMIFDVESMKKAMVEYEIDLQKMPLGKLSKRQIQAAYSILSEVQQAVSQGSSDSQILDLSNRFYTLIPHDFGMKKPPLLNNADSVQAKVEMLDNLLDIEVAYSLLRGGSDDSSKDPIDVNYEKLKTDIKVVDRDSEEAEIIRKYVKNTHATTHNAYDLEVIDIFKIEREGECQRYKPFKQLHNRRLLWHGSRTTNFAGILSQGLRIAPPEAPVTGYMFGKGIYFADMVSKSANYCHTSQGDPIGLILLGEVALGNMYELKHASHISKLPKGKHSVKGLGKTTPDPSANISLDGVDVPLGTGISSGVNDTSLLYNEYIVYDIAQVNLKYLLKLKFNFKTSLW
Single-point inhibition data were calculated by comparing PARP, VEGFR2, or MLK3 activity in the presence of inhibitor to activity in the presence of DMSO only. Inhibition curves for compounds were generated by plotting percent inhibition versus log10 of the concentration of compound. IC50 values were calculated by nonlinear regression using the sigmoidal dose-response (variable slope) equation in GraphPad Prism as follows: y=bottom+(top−bottom)/(1+10^(log IC50^−x)*Hillslope) where y is the % activity at a given concentration of compound, x is the logarithm of the concentration of compound, bottom is the % inhibition at the lowest compound concentration tested, and top is the % inhibition at the highest compound concentration examined. The values for bottom and top were fixed at 0 and 100, respectively. IC50 values were reported as the average of at least three separate determinations.
For some compounds, inhibiting data is presented as percent inhibition at a specified concentration. Compounds are tabulated together with compound number, substituents, and enzyme inhibition data.
In the case of `NCCCCC(N)C(=O)n1c2ccc(Br)cc2c2c3c(c4c(c21)CCC4)C(=O)NC3` [Compound 6i, 3-Bromo-11-L-lysyl-5,7,8,9,10,11-hexahydrocyclopent[a]pyrrolo[3,4-c]carbazole-7(6H)-one dihydrochloride], the “PARP percent inhibition @ 3 uM” value is “[35% @”.

The assay is the same for the next values; noted with them: PARP IC50 (nM), Table 2.
The term IC50 denotes the concentration at which inhibition is half-maximal. Consider `O=C1NC(=O)c2c1c1c(c3[nH]c4ccc(-c5csc(CNC(=O)C6CC6)n5)cc4c23)CCC1` [Compound 3w], for which the IC50 was found to be 49 nM.

Staying with this assay, now noted: PARP IC50 (nM), Table 8.
As to `CN(CCc1ccccn1)C(=O)Oc1ccc2[nH]c3c4c(c5c(c3c2c1)C(=O)NC5=O)CCC4` [Compound 15h], the 50% inhibitory concentration (IC50) came out at 39 nM.

Turning to `O=C(NN1CCOCC1)Oc1ccc2[nH]c3c4c(c5c(c3c2c1)C(=O)NC5=O)CCC4` [Compound 15k], the IC50 stood at 20 nM.

The assay is the same for the next values; noted with them: PARP IC50, Table 18.
For the compound `O=C1NC(=O)c2c1c1c(c3[nH]c4ccc(OC(=O)N5CCCCC5)cc4c23)CCC1` [Compound 15p], the IC50 stood at 82 nM.

Staying with this assay, now noted: Table 1; read-out: PARP IC50.
With `NCCC(=O)N1C(=O)c2c3c(c4[nH]c5ccccc5c4c2C1=O)CCC3` [Compound 1l], the IC50 was found to be 160 nM.

With `NCC(=O)N1C(=O)c2c3c(c4[nH]c5ccccc5c4c2C1=O)CCC3` [Compound 1m], the IC50 is 38 nM.

Consider `O=C1c2c3c(c4[nH]c5ccccc5c4c2C(=O)N1S(=O)(=O)c1ccccc1)CCC3` [Compound 1j], for which the IC50 was 250 nM.

Turning to `O=C1c2c3c(c4[nH]c5ccccc5c4c2C(=O)N1CCOCc1ccccc1)CCC3` [Compound 1n], the IC50 is 1600 nM.

Still in this assay, the particulars now being: Table 2; read-out: PARP IC50.
As for `CCCCC(=O)NCc1nc(-c2ccc3[nH]c4c5c(c6c(c4c3c2)C(=O)NC6=O)CCC5)cs1` [Compound 3v], the IC50 came out at 56 nM.

On to `O=C1NC(=O)c2c1c1c(c3[nH]c4ccc(O)cc4c23)CCC1` [Compound 2ao], for which the 50% inhibitory concentration (IC50) turned out to be 27 nM.

Consider `CC(C)(C)OC(=O)N[C@@H](CCCNc1nc(-c2ccc3[nH]c4c5c(c6c(c4c3c2)C(=O)NC6=O)CCC5)cs1)C(=O)OC(C)(C)C` [Compound 3e], for which the concentration for half-maximal inhibition (IC50) is 46 nM.

For the compound `O=C(CN1CCCCC1)c1ccc2[nH]c3c4c(c5c(c3c2c1)C(=O)NC5=O)CCC4` [Compound 2i], the IC50 worked out at 20 nM.

For `CCN(CC)C(=O)CCC(=O)c1ccc2[nH]c3c4c(c5c(c3c2c1)C(=O)NC5=O)CCC4` [Compound 4i], the IC50 was 12 nM.

For `NCc1ccc2[nH]c3c4c(c5c(c3c2c1)C(=O)NC5=O)CCC4` [Compound 2p, 3-(Aminomethyl)-5,7,8,9,10,11-hexahydrocyclopent[a]pyrrolo[3,4-c]carbazole-5(6H), 7-dione hydrochloride], the half-maximal inhibitory concentration (IC50) turned out to be 13 nM.

On to `CCN(CC)CC(=O)c1ccc2[nH]c3c4c(c5c(c3c2c1)C(=O)NC5=O)CCC4` [Compound 2j], for which the IC50 is 21 nM.

Take `Cc1nc(-c2ccc3[nH]c4c5c(c6c(c4c3c2)C(=O)NC6=O)CCC5)cs1` [Compound 3b]: the IC50 was 40 nM.

In the case of `CC(=O)Oc1ccc2[nH]c3c4c(c5c(c3c2c1)C(=O)NC5=O)CCC4` [Compound 2au], the half-maximal inhibitory concentration (IC50) is 33 nM.

Consider `CCC(=O)NCc1ccc2[nH]c3c4c(c5c(c3c2c1)C(=O)NC5=O)CCC4` [Compound 2s, 3-(Propanoylaminomethyl)-5,7,8,9,10,11-hexahydrocyclopent[a]pyrrolo[3,4-c]carbazole-5(6H), 7-dione], for which the 50% inhibitory concentration (IC50) was 28 nM.

Consider `CC(C)(C)OC(=O)N1CCN(C(=O)CCC(=O)c2ccc3[nH]c4c5c(c6c(c4c3c2)C(=O)NC6=O)CCC5)CC1` [Compound 4q], for which the half-inhibitory concentration (IC50) is 10 nM.

With `N#CCc1ccc2[nH]c3c4c(c5c(c3c2c1)C(=O)NC5=O)CCC4` [Compound 2bc], the IC50 turned out to be 24 nM.

Take `O=C1NC(=O)c2c1c1c(c3[nH]c4ccc(C(=O)N(CCO)CCO)cc4c23)CCC1` [Compound 2dc]: the IC50 turned out to be 18 nM.

With `O=C1NC(=O)c2c1c1c(c3[nH]c4ccc(Cl)cc4c23)CCC1` [Compound 2b], the 50% inhibitory concentration (IC50) turned out to be 39 nM.

On to `CC(=O)Nc1nc(-c2ccc3[nH]c4c5c(c6c(c4c3c2)C(=O)NC6=O)CCC5)c[nH]1` [Compound 3l], for which the half-inhibitory concentration (IC50) came to 47 nM.

In the case of `CCc1ccc2[nH]c3c4c(c5c(c3c2c1)C(=O)NC5=O)CCC4` [Compound 2az], the IC50 worked out at 116 nM.

For the compound `O=C(CN1CCCC1C(=O)O)c1ccc2[nH]c3c4c(c5c(c3c2c1)C(=O)NC5=O)CCC4` (stereo not shown) [Compound 4c], the concentration for half-maximal inhibition (IC50) turned out to be 7 nM.

Consider `CC(C)CC(=O)NCc1nc(-c2ccc3[nH]c4c5c(c6c(c4c3c2)C(=O)NC6=O)CCC5)cs1` [Compound 3r], for which the half-maximal inhibitory concentration (IC50) amounted to 56 nM.

Turning to `O=C1NC(O)c2c1c1c(c3[nH]c4ccccc4c23)CCC1` (stereo not shown) [Compound 2ay], the half-maximal inhibitory concentration (IC50) was 408 nM.

As for `NC(=O)c1ccc2[nH]c3c4c(c5c(c3c2c1)C(=O)NC5=O)CCC4` [Compound 2bh], the 50% inhibitory concentration (IC50) worked out at 31 nM.

In the case of `NCc1nc(-c2ccc3[nH]c4c5c(c6c(c4c3c2)C(=O)NC6=O)CCC5)cs1` [Compound 3k], the IC50 was 42 nM.

As to `O=C(O)CCCC(=O)NCc1ccc2[nH]c3c4c(c5c(c3c2c1)C(=O)NC5=O)CCC4` [Compound 2ac, 3-(N-(4-(Carboxy)butanoyl)aminomethyl)-5,7,8,9,10,11-hexahydrocyclopent[a]-pyrrolo[3,4-c]carbazole-5(6H), 7-dione], the half-inhibitory concentration (IC50) worked out at 48 nM.

With `CN(C)CC(=O)OCc1ccc2[nH]c3c4c(c5c(c3c2c1)C(=O)NC5=O)CCC4` [Compound 2bg], the concentration for half-maximal inhibition (IC50) came to 31 nM.

As to `CC(C)C(=O)NCc1nc(-c2ccc3[nH]c4c5c(c6c(c4c3c2)C(=O)NC6=O)CCC5)cs1` [Compound 3t], the IC50 was 32 nM.

On to `CC(C)(C)C(=O)OCc1nc(-c2ccc3[nH]c4c5c(c6c(c4c3c2)C(=O)NC6=O)CCC5)cs1` [Compound 3y], for which the IC50 worked out at 60 nM.

In the case of `CN1N=C(c2ccc3[nH]c4c5c(c6c(c4c3c2)C(=O)NC6=O)CCC5)CCC1=O` [Compound 4m], the IC50 stood at 12 nM.

Regarding `CN(C)CCCOc1ccc2[nH]c3c4c(c5c(c3c2c1)C(=O)NC5=O)CCC4` [Compound 2as], the half-inhibitory concentration (IC50) was found to be 100 nM.

Take `O=C(CCC(=O)N1CCCC1C(=O)O)c1ccc2[nH]c3c4c(c5c(c3c2c1)C(=O)NC5=O)CCC4` (stereo not shown) [Compound 4j]: the IC50 is 2 nM.

As for `NCCCC(=O)NCc1ccc2[nH]c3c4c(c5c(c3c2c1)C(=O)NC5=O)CCC4` [Compound 2y, 3-(N-(4-(Amino)butanoyl)aminomethyl)-5,7,8,9,10,11-hexahydrocyclopent[a]pyrrolo[3,4-c]carbazole-5(6H), 7-dione], the IC50 came out at 54 nM.

Turning to `CN1CCN(C(=O)c2ccc3[nH]c4c5c(c6c(c4c3c2)C(=O)NC6=O)CCC5)CC1` [Compound 2cq], the IC50 turned out to be 12 nM.

In the case of `O=C(O)CCCC(=O)c1ccc2[nH]c3c4c(c5c(c3c2c1)C(=O)NC5=O)CCC4` [Compound 4n], the IC50 stood at 2 nM.

As for `CC(C)NCc1ccc2[nH]c3c4c(c5c(c3c2c1)C(=O)NC5=O)CCC4` [Compound 2br], the IC50 came to 25 nM.

For the compound `NC(CCCNc1nc(-c2ccc3[nH]c4c5c(c6c(c4c3c2)C(=O)NC6=O)CCC5)cs1)C(=O)O` (stereo not shown) [Compound 3f], the 50% inhibitory concentration (IC50) was 22 nM.

Consider `O=C1CCC(c2ccc3[nH]c4c5c(c6c(c4c3c2)C(=O)NC6=O)CCC5)=NN1` [Compound 4l], for which the IC50 came to 17 nM.

Still in this assay, the particulars now being: Table 4; read-out: PARP IC50.
With `O=C1NC(=O)c2c1c1c(c3[nH]c4ncccc4c23)CCC1` [Compound 8h], the 50% inhibitory concentration (IC50) was 3 nM.

In the case of `N#Cc1c[nH]c2c3c(c4c(c12)C(=O)NC4=O)CCC3` [Compound 8d, 3-Cyano-1,6,7,8-tetrahydrocyclopent[g]indole-4,5-dicarboxylate imide], the concentration for half-maximal inhibition (IC50) is 6 nM.

The assay is the same for the next values; noted with them: Table 7; read-out: PARP IC50.
Consider `COc1ccc2c(c1)[nH]c1c3c(c4c(c12)C(=O)NC4=O)CCC3` [Compound 14a], for which the IC50 was found to be 224 nM.

The assay is the same for the next values; noted with them: Table 18; read-out: PARP IC50.
On to `COc1cccc2c1c1c3c(c4c(c1n2CN1CCOCC1)CCC4)C(=O)N(CN1CCOCC1)C3=O` [Compound 16a], for which the half-maximal inhibitory concentration (IC50) is 10 nM.

For the compound `O=C1NC(=O)c2c1c1c(c3[nH]c4cccc(O)c4c23)CCC1` [Compound 14c], the IC50 worked out at 176 nM.

`COc1cnc2[nH]c3c4c(c5c(c3c2c1)C(=O)NC5=O)CCC4` [Compound 8w]: the IC50 was 4 nM.

Regarding `O=C1NC(=O)c2c1c1c(c3[nH]c4nc(O)c(Cl)cc4c23)CCC1` [Compound 8s], the IC50 was 14 nM.

Consider `COCCOc1ccnc2[nH]c3c4c(c5c(c3c12)C(=O)NC5=O)CCC4` [Compound 8aa], for which the half-maximal inhibitory concentration (IC50) was determined as 10 nM.

Consider `COCCOc1cccc2[nH]c3c4c(c5c(c3c12)C(=O)NC5=O)CCC4` [Compound 14f], for which the half-maximal inhibitory concentration (IC50) came to 25 nM.

On to `COc1c(Br)ccc2[nH]c3c4c(c5c(c3c12)C(=O)NC5=O)CCC4` [Compound 14m], for which the IC50 was 67 nM.

On to `COc1c(C#N)ccc2[nH]c3c4c(c5c(c3c12)C(=O)NC5=O)CCC4` [Compound 14o], for which the IC50 stood at 7 nM.

As to `CCOc1cccc2[nH]c3c4c(c5c(c3c12)C(=O)NC5=O)CCC4` [Compound 14g], the IC50 is 56 nM.

With `O=C1NC(=O)c2c1c1c(c3[nH]c4cccc(OCCN5CCOCC5)c4c23)CCC1` [Compound 14d], the half-maximal inhibitory concentration (IC50) stood at 441 nM.

For the compound `COc1cccc2[nH]c3c4c(c5c(c3c12)C(=O)N(CN1CCOCC1)C5=O)CCC4` [Compound 16d], the IC50 is 11 nM.

As for `CN(C)CN1C(=O)c2c3c(c4[nH]c5ccccc5c4c2C1=O)CCC3` [Compound 16i], the IC50 turned out to be 53 nM.

(Values after patent US8716493B2, “Multicyclic compounds and the use thereof” (Cephalon, Inc., priority 2000, dated 2014).)
